The source of these data is patent US20090023744A1, “COMBINATION THERAPY FOR DEPRESSION” (The General Hospital Corporation, priority 2007, published 2009).

“Also recorded” adds a separate entry of the source.

The subject of data set [1] is major depressive disorder (MDD). As to the kind of experiment: Clinical case report: treatment of recurrent MDD with buspirone and bupropion. The class given is in vivo, human. Conditions: same patient remaining on bupropion 150 SR q.d. alone. An excerpt:
A person with a history of recurrent episodes of MDD presented with a recurrence of their MDD in the context of their having been off antidepressant medications. […] At the time of the initiation of this treatment combination, the patient reported depressed mood, irritability, decreased sleep and appetite, and fatigue, as well as reduced interest.

The target in data set [2] is T1, 5-HT2C receptor (Homo sapiens, UniProt P28335).
T1 sequence (P28335 33-458): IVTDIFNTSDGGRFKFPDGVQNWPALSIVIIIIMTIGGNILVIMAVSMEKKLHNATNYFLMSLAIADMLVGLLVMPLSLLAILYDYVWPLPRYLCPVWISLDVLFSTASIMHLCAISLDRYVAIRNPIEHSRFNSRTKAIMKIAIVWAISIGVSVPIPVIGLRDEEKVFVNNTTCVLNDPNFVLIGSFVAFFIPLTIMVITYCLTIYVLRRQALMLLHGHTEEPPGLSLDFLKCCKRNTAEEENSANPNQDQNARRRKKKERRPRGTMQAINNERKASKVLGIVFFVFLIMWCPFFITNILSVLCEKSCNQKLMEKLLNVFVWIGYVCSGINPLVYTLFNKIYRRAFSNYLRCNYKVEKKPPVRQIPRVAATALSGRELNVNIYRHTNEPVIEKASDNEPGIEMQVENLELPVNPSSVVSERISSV
Conditions: reference [2]; cited from earlier work.

The target in data set [3] is T1, 5-HT2C receptor. Conditions: reference [2]; cited from earlier work. The source holds these as a separate data set.

On to `CC(NC(C)(C)C)C(=O)c1cccc(Cl)c1` (racemic) [bupropion, (±)-1-(3-chlorophenyl)-2-[(1,1-dimethylethyl)amino]-1-propanone], for which, in data set [1], the “depressive symptoms after discontinuation of buspirone” value is recorded as “depressive symptoms quickly returned; also recorded: not sufficient to lead to antidepressant response” and the “insomnia after discontinuation of buspirone” value is listed as “improvement of their insomnia”.
Turning to `O=C1CC2(CCCC2)CC(=O)N1CCCCN1CCN(c2ncccn2)CC1` [buspirone, 8-[4-[4-(2-pyrimidinyl)-1-piperazinyl)butyl)-8-azaspiro[4,5]decane-7,9-dione], at 5-HT2C receptor [2], the “5-HT2C receptor antagonist activity” value is “weak”. At 5-HT2C receptor [3], the “affinity for 5-HT2C receptors” value is “low affinity”.
